In patent US7087375B1, “Method for determining the mechanism of HIV RT inhibitors” (priority 2000, dated 2006):
Where “and” joins values, the source holds several entries; their conditions need not be identical. Identical values can stand only once.

Assays:
[1] = test system: HXB2 site-directed mutant D67N, K70R; type: cell-based; settings: virus D67N
[2] = test system: HXB2 site-directed mutant T69S-AG; type: cell-based; settings: virus T69S-AG
[3] = test system: HXB2 site-directed mutant M41L, D67N, K70R, M184V, T215Y; type: cell-based; settings: virus M41L
[4] = test system: HXB2 site-directed mutant M41L, T69S-AG, T215Y; type: cell-based; settings: virus M41L
[5] = test system: HXB2 site-directed mutant M41L, M184V, T215Y; type: cell-based; settings: virus M41L
[6] = test system: HXB2 site-directed mutant M41L, T69S-SS, T215Y; type: cell-based; settings: virus M41L
wild type HXB2 virus = test: HIV drug susceptibility assay (recombinant virus, MT-4 cells)
Method: Phenotypic susceptibility of these viable recombinant viruses to nucleoside analogs was then determined. […] Fold resistance values were calculated by dividing the mean 50% inhibitory concentration (IC50) for a recombinant virus from a mutant clone by the mean IC50 for recombinant wild type virus (HXB2).

[7] = test system: HXB2 site-directed mutant M41L, T215Y; type: cell-based; settings: virus M41L
[8] = test system: HXB2 site-directed mutant T69S-SG; type: cell-based; settings: virus T69S-SG
[9] = test system: HXB2 site-directed mutant T69S-SS; type: cell-based; settings: virus T69S-SS
[10] = test system: HXB2 site-directed mutant M41L, T69S-SG, T215Y; type: cell-based; settings: virus M41L

## Cc1cn([C@H]2C=C[C@@H](CO)O2)c(=O)[nH]c1=O [d4T, stavudine]
[1]
  Fold resistance in IC50 relative to HXB2: 5.1 fold
[2]
  Fold resistance in IC50 relative to HXB2: 6.9 fold and 6.9 +/− 2.7 fold
[3]
  Fold resistance in IC50 relative to HXB2: 3.7 fold and 3.7 +/− 1.0 fold
[4]
  Fold resistance in IC50 relative to HXB2: 3.1 fold
[5]
  Fold resistance in IC50 relative to HXB2: 2.2 fold
[6]
  Fold resistance in IC50 relative to HXB2: 7.1 fold
Wild type HXB2 virus; Human immunodeficiency virus 1, HXB2, MT4, read-out: mean IC50 for the wild type control virus
  IC50: 1200 nM
Wild type HXB2 virus; wild type HXB2 virus (reference)
  Virus Assay fold resistance: 1.0 fold
[7]
  Fold resistance in IC50 relative to HXB2: 2.6 fold
[8]
  Fold resistance in IC50 relative to HXB2: 4.4 fold and 4.4 +/− 1.1 fold
[9]
  Fold resistance in IC50 relative to HXB2: 4.4 fold
[10]
  Fold resistance in IC50 relative to HXB2: 4.0 fold
